Numbered stars: 1 amine (or outer) side, 2 acyl side, 3 side chain; on linkers, the order of the positions; unused ones are H or OH. Bridge positions count the residues as written; N and C are the ends. Square brackets hold non-standard residues; d marks the D form. Side chains are listed from the residue outwards. Peptide text beside a SMILES is read from it. * marks the point of attachment. DOTA(Lu) = O=C1CN2CCN3CCN(CC(=O)*)CCN(CC2)CC(=O)[O][Lu]([O]1)[O]C(=O)C3; NH(1-deoxy-D-glucityl) = OC[C@@H](O)[C@@H](O)[C@H](O)[C@@H](O)CN*; DOTA = O=C(O)CN1CCN(CC(=O)O)CCN(CC(=O)*)CCN(CC(=O)O)CC1; Trp(1-Me,7-Cl) = Cn1cc(C[C@H](N)C(=O)O)c2cccc(Cl)c21; dPhe(3-CONH2) = NC(=O)c1cccc(C[C@@H](N)C(=O)O)c1; NMePhe(3-CN) = CN[C@@H](Cc1cccc(C#N)c1)C(=O)O; Piperazinyl(4-CH2COOH) = O=C(O)CN1CCN(*)CC1; Trp(1-Me) = Cn1cc(C[C@H](N)C(=O)O)c2ccccc21; PEG8 = NCCOCCOCCOCCOCCOCCOCCOCCOCCC(=O)O; NMe3Pal = CN[C@@H](Cc1cccnc1)C(=O)O; NMeF = CN[C@@H](Cc1ccccc1)C(=O)O; hCit = NC(=O)NCCCC[C@H](N)C(=O)O; Gly(cBu) = N[C@H](C(=O)O)C1CCC1; NMeE = CN[C@@H](CCC(=O)O)C(=O)O; Aad = N[C@@H](CCCC(=O)O)C(=O)O; Cit = NC(=O)NCCC[C@H](N)C(=O)O; NMeN = CN[C@@H](CC(N)=O)C(=O)O; PEG2 = NCCOCCOCCC(=O)O; CO = O=C([*:1])[*:2]; βAla = NCCC(=O)O
What follows are molecules tested against T1, Recombinant Human EphA2 Fc Protein (Homo sapiens, UniProt P29317) (assay: Interaction analysis (kinetics, KD) of peptides and conjugates against EphA2 by SPR, Biacore T200, single-cycle kinetics (Examples B15 and B22)). Settings: not given.
T1 construct: purchased Elabscience
Type: binding
How it was run: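 Biacore T200 SPR with Fc-tagged human EphA2 captured via anti-human antibody; running buffer HBS-P+ pH 7.4 with 1% DMSO, 25 °C. Five serial dilutions of peptide or conjugate run by single-cycle kinetics; KD from ka and kd after baseline subtraction.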

T1 sequence (P29317 24-534 limits assumed): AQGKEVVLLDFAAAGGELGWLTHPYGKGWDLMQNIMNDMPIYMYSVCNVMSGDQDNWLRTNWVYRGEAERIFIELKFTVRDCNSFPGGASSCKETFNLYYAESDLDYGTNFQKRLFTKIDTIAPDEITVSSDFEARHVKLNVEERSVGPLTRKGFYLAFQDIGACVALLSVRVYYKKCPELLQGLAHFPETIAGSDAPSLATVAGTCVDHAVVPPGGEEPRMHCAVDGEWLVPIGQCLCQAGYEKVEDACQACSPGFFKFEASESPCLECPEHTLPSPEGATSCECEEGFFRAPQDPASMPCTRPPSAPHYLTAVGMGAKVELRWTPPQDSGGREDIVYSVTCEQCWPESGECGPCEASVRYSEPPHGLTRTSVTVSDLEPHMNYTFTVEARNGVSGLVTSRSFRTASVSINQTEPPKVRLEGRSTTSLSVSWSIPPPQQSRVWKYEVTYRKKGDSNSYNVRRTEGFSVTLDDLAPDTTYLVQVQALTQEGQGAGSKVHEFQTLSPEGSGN

Q: Which Kd does the source give for CN1C(=O)[C@H](CCC(=O)NC[C@H](O)[C@@H](O)[C@H](O)[C@H](O)CO)NC(=O)[C@H](C2CCC2)NC(=O)[C@H](CC(N)=O)NC(=O)[C@H](Cc2cccnc2)N(C)C(=O)[C@@H](Cc2cccc(C(N)=O)c2)NC(=O)CSC[C@@H](C(=O)N[C@@H](CCCCNC(=O)CN2CCN3CCN4CCN(CC2)CC(=O)[O][Lu]([O]C(=O)C3)[O]C(=O)C4)C(N)=O)NC(=O)[C@H](Cc2cn(C)c3ccccc23)NC(=O)[C@H](CCC(=O)NC[C@H](O)[C@@H](O)[C@H](O)[C@H](O)CO)NC(=O)[C@H](Cc2cn(C)c3c(Cl)cccc23)NC(=O)[C@@H]1Cc1cccnc1 [PDC_EphA2-00026604-C301] ({CH2CO}-[dPhe(3-CONH2)][NMe3Pal]N[Gly(cBu)]E(NH(1-deoxy-D-glucityl))[NMe3Pal][Trp(1-Me,7-Cl)]E(NH(1-deoxy-D-glucityl))[Trp(1-Me)]CK(DOTA(Lu))-NH2; thioether N-10) here?
A: < 1 nM

Q: Which Kd does the source give for CN1C(=O)[C@H](CCC(=O)NC[C@H](O)[C@@H](O)[C@H](O)[C@H](O)CO)NC(=O)[C@H](C2CCC2)NC(=O)[C@H](CC(N)=O)NC(=O)[C@H](Cc2cccnc2)N(C)C(=O)[C@@H](Cc2cccc(C(N)=O)c2)NC(=O)CSC[C@@H](C(=O)N[C@@H](CCCCNC(=O)CN2CCN3CCN4CCN(CC2)CC(=O)[O][Lu]([O]C(=O)C3)[O]C(=O)C4)C(N)=O)NC(=O)[C@H](Cc2cn(C)c3ccccc23)NC(=O)[C@H](CCCCNC(N)=O)NC(=O)[C@H](Cc2cn(C)c3c(Cl)cccc23)NC(=O)[C@@H]1CCC(=O)O [PDC_EphA2-00026607-C301] ({CH2CO}-[dPhe(3-CONH2)][NMe3Pal]N[Gly(cBu)]E(NH(1-deoxy-D-glucityl))[NMeE][Trp(1-Me,7-Cl)][hCit][Trp(1-Me)]CK(DOTA(Lu))-NH2; thioether N-10) here?
A: < 1 nM

Q: C[C@H]1NC(=O)CSC[C@@H](C(N)=O)NC(=O)[C@H](CCCCNC(=O)[C@@H](CCC(=O)O)NC(=O)CN2CCN3CCN4CCN(CC2)CC(=O)[O][Lu]([O]C(=O)C3)[O]C(=O)C4)NC(=O)[C@H]([C@@H](C)O)NC(=O)[C@H](Cc2cn(C)c3ccccc23)NC(=O)[C@H](CCCCNC(=O)N2CCN(CC(=O)O)CC2)NC(=O)[C@H](Cc2cn(C)c3c(Cl)cccc23)NC(=O)[C@H](CCC(=O)O)N(C)C(=O)[C@H](CCCC(N)=O)NC(=O)[C@H](C2CCC2)NC(=O)[C@H](CC(N)=O)NC(=O)[C@H](Cc2cccnc2)N(C)C1=O [PDC_EphA2-00027128] ({CH2CO}-[dA][NMe3Pal]N[Gly(cBu)][Aad](NH2)[NMeE][Trp(1-Me,7-Cl)]K([CO-Piperazinyl(4-CH2COOH)])[Trp(1-Me)]TK([dE-DOTA(Lu)])C-NH2; thioether N-12) was tested. Which Kd did it give?
A: < 1 nM

Q: For CC(C)C[C@@H]1NC(=O)[C@H](CC(N)=O)NC(=O)[C@H](Cc2cccnc2)N(C)C(=O)[C@@H](Cc2cccc(C(N)=O)c2)NC(=O)CSC[C@@H](C(=O)N[C@H](CCCCNC(=O)CN2CCN3CCN4CCN(CC2)CC(=O)[O][Lu]([O]C(=O)C3)[O]C(=O)C4)C(N)=O)NC(=O)[C@H](CC(N)=O)NC(=O)[C@H]([C@@H](C)O)NC(=O)[C@H](Cc2cn(C)c3ccccc23)NC(=O)[C@H](CCCNC(N)=O)NC(=O)[C@H](Cc2cn(C)c3c(Cl)cccc23)NC(=O)[C@H](CC(N)=O)N(C)C(=O)[C@H](CC(N)=O)NC1=O [PDC_EphA2-00026426-C302] ({CH2CO}-[dPhe(3-CONH2)][NMe3Pal]NLN[NMeN][Trp(1-Me,7-Cl)][Cit][Trp(1-Me)]TNC[dK](DOTA(Lu))-NH2; thioether N-12), which Kd is on record?
A: < 1 nM

Q: CC(C)C[C@@H]1NC(=O)[C@H](CC(N)=O)NC(=O)[C@H](Cc2cccnc2)N(C)C(=O)[C@@H](C)NC(=O)CSC[C@@H](C(N)=O)NC(=O)[C@H](CCCC(N)=O)NC(=O)[C@H]([C@@H](C)O)NC(=O)[C@H](Cc2cn(C)c3ccccc23)NC(=O)[C@H](CCCCNC(=O)CN2CCN3CCN4CCN(CC2)CC(=O)[O][Lu]([O]C(=O)C3)[O]C(=O)C4)NC(=O)[C@H](Cc2cn(C)c3c(Cl)cccc23)NC(=O)[C@H](CCC(=O)O)N(C)C(=O)[C@H](CCCC(N)=O)NC1=O [PDC_EphA2-00026632] ({CH2CO}-[dA][NMe3Pal]NL[Aad](NH2)[NMeE][Trp(1-Me,7-Cl)]K(DOTA(Lu))[Trp(1-Me)]T[Aad](NH2)C-NH2; thioether N-12) was tested. Which Kd did it give?
A: < 1 nM

Same assay, conditions: conjugates, Biacore T200 according to Example B15, Table B16; read-out: SPR Kd

Q: How did the Kd turn out when CC(C)C[C@@H]1NC(=O)[C@H](CC(N)=O)NC(=O)[C@H](Cc2cccnc2)N(C)C(=O)[C@@H](Cc2cccc(C(N)=O)c2)NC(=O)CSC[C@@H](C(N)=O)NC(=O)[C@H](CCCC(N)=O)NC(=O)[C@H]([C@@H](C)O)NC(=O)[C@H](Cc2cn(C)c3ccccc23)NC(=O)[C@H](CCCCNC(=O)N2CCN(CC(=O)O)CC2)NC(=O)[C@H](Cc2cn(C)c3c(Cl)cccc23)NC(=O)[C@H](CCC(=O)O)N(C)C(=O)[C@H](CCCCNC(=O)CN2CCN(CC(=O)O)CCN(CC(=O)O)CCN(CC(=O)O)CC2)NC1=O.[Lu+3] [PDC_EphA2-00026717] ({CH2CO}-[dPhe(3-CONH2)][NMe3Pal]NLK(DOTA)[NMeE][Trp(1-Me,7-Cl)]K([CO-Piperazinyl(4-CH2COOH)])[Trp(1-Me)]T[Aad](NH2)C-NH2; thioether N-12) was run?
A: < 1 nM

Q: C[C@@H](O)[C@@H]1NC(=O)[C@H](Cc2cn(C)c3ccccc23)NC(=O)[C@H](CCC(=O)NC[C@H](O)[C@@H](O)[C@H](O)[C@H](O)CO)NC(=O)[C@H](Cc2cn(C)c3c(Cl)cccc23)NC(=O)[C@H](Cc2cccnc2)N(C)C(=O)[C@H](CCCC(N)=O)NC(=O)[C@H](C2CCC2)NC(=O)[C@H](CC(N)=O)NC(=O)[C@H](Cc2cccc(C#N)c2)N(C)C(=O)[C@@H](Cc2cccc(C(N)=O)c2)NC(=O)CSC[C@@H](C(=O)N[C@H](CCCCNC(=O)CN2CCN(CC(=O)O)CCN(CC(=O)O)CCN(CC(=O)O)CC2)C(N)=O)NC(=O)[C@H](CCCC(N)=O)NC1=O.[Lu+3] [PDC_EphA2-00022614-C302] ({CH2CO}-[dPhe(3-CONH2)][NMePhe(3-CN)]N[Gly(cBu)][Aad](NH2)[NMe3Pal][Trp(1-Me,7-Cl)]E(NH(1-deoxy-D-glucityl))[Trp(1-Me)]T[Aad](NH2)C[dK](DOTA)-NH2; thioether N-12) was tested. Which Kd did it give?
A: < 1 nM

Q: For C[C@@H](O)[C@@H]1NC(=O)[C@H](Cc2cn(C)c3ccccc23)NC(=O)[C@H](CCCCNC(=O)N2CCN(CC(=O)O)CC2)NC(=O)[C@H](Cc2cn(C)c3c(Cl)cccc23)NC(=O)[C@H](CCC(=O)O)N(C)C(=O)[C@H](CCCCNC(=O)CN2CCN(CC(=O)O)CCN(CC(=O)O)CCN(CC(=O)O)CC2)NC(=O)[C@H](C2CCC2)NC(=O)[C@H](CC(N)=O)NC(=O)[C@H](Cc2cccnc2)N(C)C(=O)[C@@H](Cc2cccc(C(N)=O)c2)NC(=O)CSC[C@@H](C(=O)N[C@H](CCC(=O)O)C(N)=O)NC(=O)[C@H](CCCC(N)=O)NC1=O.[Lu+3] [PDC_EphA2-00027106] ({CH2CO}-[dPhe(3-CONH2)][NMe3Pal]N[Gly(cBu)]K(DOTA)[NMeE][Trp(1-Me,7-Cl)]K([CO-Piperazinyl(4-CH2COOH)])[Trp(1-Me)]T[Aad](NH2)C[dE]-NH2; thioether N-12), which Kd is on record?
A: < 1 nM

Q: For CC(C)C[C@@H]1NC(=O)[C@H](CC(N)=O)NC(=O)[C@H](Cc2cccnc2)N(C)C(=O)[C@@H](C)NC(=O)CSC[C@@H](C(=O)NCCC(=O)N[C@H](CCCCNC(=O)CCOCCOCCNC(=O)CCOCCOCCOCCOCCOCCOCCOCCOCCNC(=O)CN2CCN(CC(=O)O)CCN(CC(=O)O)CCN(CC(=O)O)CC2)C(N)=O)NC(=O)[C@H](CCCC(N)=O)NC(=O)[C@H]([C@@H](C)O)NC(=O)[C@H](Cc2cn(C)c3ccccc23)NC(=O)[C@H](CCCCNC(=O)N2CCN(CC(=O)O)CC2)NC(=O)[C@H](Cc2cn(C)c3ccccc23)NC(=O)[C@H](Cc2ccccc2)N(C)C(=O)[C@H](CCCC(N)=O)NC1=O.[Lu+3] [PDC_EphA2-00008093-C304] ({CH2CO}-[dA][NMe3Pal]NL[Aad](NH2)[NMeF][Trp(1-Me)]K([CO-Piperazinyl(4-CH2COOH)])[Trp(1-Me)]T[Aad](NH2)C[βAla][dK]([PEG2-PEG8-DOTA])-NH2; thioether N-12), which Kd is on record?
A: < 1 nM

Q: With CC(C)C[C@@H]1NC(=O)[C@H](CC(N)=O)NC(=O)[C@H](Cc2ccccc2)N(C)C(=O)[C@@H](C)NC(=O)CSC[C@@H](C(=O)NCCC(=O)N[C@H](CCCCNC(=O)CCOCCOCCNC(=O)CCOCCOCCOCCOCCOCCOCCOCCOCCNC(=O)CN2CCN(CC(=O)O)CCN(CC(=O)O)CCN(CC(=O)O)CC2)C(N)=O)NC(=O)[C@H](CCC(=O)O)NC(=O)[C@H]([C@@H](C)O)NC(=O)[C@H](Cc2cn(C)c3ccccc23)NC(=O)[C@H](C(C)C)NC(=O)[C@H](Cc2cn(C)c3ccccc23)NC(=O)[C@H](Cc2ccccc2)N(C)C(=O)[C@H](CCCC(=O)O)NC1=O.[Lu+3] [PDC_EphA2-00001417-C304] ({CH2CO}-[dA][NMeF]NL[Aad][NMeF][Trp(1-Me)]V[Trp(1-Me)]TEC[βAla][dK]([PEG2-PEG8-DOTA])-NH2; thioether N-12) as the molecule, how does the Kd read?
A: 1 to 10 nM

Same assay, conditions: peptides, Biacore T200, 25 °C, Table B12; read-out: SPR Kd

Q: With C[C@@H](O)[C@@H]1NC(=O)[C@H](Cc2cn(C)c3ccccc23)NC(=O)[C@H](CCCCNC(N)=O)NC(=O)[C@H](Cc2cn(C)c3c(Cl)cccc23)NC(=O)[C@H](CC(N)=O)N(C)C(=O)[C@H](CCCC(N)=O)NC(=O)[C@H](C2CCC2)NC(=O)[C@H](CC(N)=O)NC(=O)[C@H](Cc2ccccc2)N(C)C(=O)[C@@H](Cc2cccc(C(N)=O)c2)NC(=O)CSC[C@@H](C(N)=O)NC(=O)[C@H](CCCC(N)=O)NC1=O [PDC_EphA2-00019426] ({CH2CO}-[dPhe(3-CONH2)][NMeF]N[Gly(cBu)][Aad](NH2)[NMeN][Trp(1-Me,7-Cl)][hCit][Trp(1-Me)]T[Aad](NH2)C-NH2; thioether N-12) as the molecule, how does the Kd read?
A: < 1 nM
